Results reported in ChEMBL document CHEMBL1201862, “PubChem BioAssay data set” (2004).
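Protocol summary: plate cells (96-well), add compound at 5 concentrations, incubate 48 h, interpolate endpoints linearly. Here, GI50 denotes the concentration required for 50% inhibition of growth.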 Activity calls are given as the source filed them. Rule as the data show it: active = GI50 up to about 1.1 µM and inactive = higher.

How the values were obtained:
Assay in all cases: NCI anticancer screen, dose series, 48 h
A498 = system: A498
A549 = system: A549
CCRF-CEM = system: CCRF-CEM
DLD-1 = system: DLD-1
EKVX = system: EKVX
KM-20L2 = system: KM-20L2
LXFL 529 = system: LXFL 529
M19-MEL = system: M19-MEL
NCI-H23 = system: NCI-H23
OVCAR-4 = system: OVCAR-4
SNB-78 = system: SNB-78
SW-620 = system: SW-620
XF498 = system: XF498
DMS-273 = system: DMS-273
K562 = system: K562
MCF7 = system: MCF7
SR = system: SR

Measured: GI50

CC(=O)OC1/C=C(\C)C(OC(C)=O)C/C=C(/C)CCC2C(/C=C/C1=O)C2(C)C (configuration not stated)
inactive: A498 > 100 µM | A549 > 100 µM | CCRF-CEM > 100 µM | DLD-1 > 100 µM | EKVX > 100 µM | KM-20L2 > 100 µM | LXFL 529 > 100 µM | M19-MEL > 100 µM | NCI-H23 > 100 µM | OVCAR-4 > 100 µM | SNB-78 > 100 µM | SW-620 > 100 µM | XF498 35.7 µM

S=P1(N2CCCCC2)Oc2ccc3ccccc3c2-c2c(ccc3ccccc23)O1
inactive: A498 > 35.2 µM | A549 > 89.5 µM | CCRF-CEM > 31.6 µM | DLD-1 91.2 µM | DMS-273 > 80.2 µM | EKVX > 53.5 µM | K562 85.7 µM | KM-20L2 > 78.9 µM | M19-MEL 71 µM | MCF7 > 85.3 µM | NCI-H23 > 81.1 µM | OVCAR-4 27.5 µM | SNB-78 71.4 µM | SW-620 > 100 µM | XF498 56.9 µM

C=C1Oc2nc3ccccc3c(=O)n2C1(C)C
inactive: A498 > 100 µM | A549 > 100 µM | CCRF-CEM > 100 µM | DLD-1 > 100 µM | DMS-273 > 100 µM | EKVX > 100 µM | K562 > 100 µM | KM-20L2 > 100 µM | LXFL 529 > 100 µM | M19-MEL > 100 µM | NCI-H23 > 100 µM | OVCAR-4 > 100 µM | SNB-78 > 100 µM | SW-620 > 100 µM | XF498 > 100 µM

O=C1N(C2CCCCC2)CC12CCCCC2
inactive: A498 > 100 µM | A549 > 100 µM | CCRF-CEM > 100 µM | DMS-273 > 100 µM | EKVX > 100 µM | K562 > 100 µM | KM-20L2 > 100 µM | M19-MEL > 100 µM | NCI-H23 > 100 µM | OVCAR-4 > 100 µM | SNB-78 > 100 µM | SW-620 > 100 µM | XF498 > 100 µM

COc1ccc2c(c1)OCCC1=C2SCC2(C)CCN=C12 (configuration not stated)
inactive: A549 > 100 µM | CCRF-CEM > 100 µM | DLD-1 > 100 µM | DMS-273 > 100 µM | K562 46.2 µM | KM-20L2 36.1 µM | LXFL 529 > 100 µM | NCI-H23 61.7 µM | OVCAR-4 > 100 µM | SNB-78 > 100 µM | SW-620 > 100 µM | XF498 > 100 µM

CCC1=CCN(c2ccc(C)cc2)OC1c1ccc(OC)cc1 (configuration not stated)
inactive: A549 71.8 µM | CCRF-CEM 56.6 µM | DLD-1 58.1 µM | DMS-273 69.8 µM | EKVX > 100 µM | K562 94.8 µM | KM-20L2 66.5 µM | LXFL 529 62.4 µM | M19-MEL 42.7 µM | NCI-H23 39.7 µM | OVCAR-4 92.7 µM | SNB-78 > 100 µM | SR 47.4 µM | SW-620 > 100 µM | XF498 46.6 µM

CCOC(=O)/C(=C/c1ccc[nH]1)P(=O)(OCC)OCC
inactive: A549 > 100 µM | CCRF-CEM > 100 µM | DLD-1 > 100 µM | DMS-273 > 100 µM | EKVX > 100 µM | K562 > 100 µM | KM-20L2 > 100 µM | LXFL 529 > 100 µM | M19-MEL > 100 µM | NCI-H23 > 100 µM | OVCAR-4 > 100 µM | SNB-78 > 100 µM | SR > 100 µM | SW-620 > 100 µM | XF498 > 100 µM

CCCCc1c2cnccc2c(CCCC)c2c1[nH]c1ccccc12
inactive: A498 15.5 µM | A549 12.1 µM | CCRF-CEM 9.38 µM | DLD-1 9.1 µM | DMS-273 10.7 µM | EKVX 14.6 µM | K562 3.54 µM | KM-20L2 13.6 µM | LXFL 529 11.4 µM | M19-MEL 12.4 µM | NCI-H23 5.33 µM | OVCAR-4 8.99 µM | SNB-78 25.2 µM | SW-620 12.9 µM | XF498 5.19 µM

COc1ccc2c(OC)c3ccoc3nc2c1O
inactive: A498 > 100 µM | A549 > 100 µM | CCRF-CEM 43.3 µM | DLD-1 78.3 µM | EKVX 53.8 µM | K562 > 100 µM | KM-20L2 > 100 µM | LXFL 529 > 100 µM | M19-MEL 54.8 µM | NCI-H23 > 100 µM | OVCAR-4 > 100 µM | SNB-78 > 100 µM | SW-620 > 100 µM | XF498 > 100 µM

C(=C/c1nc2ccccc2o1)/c1ccc2c(c1)OCO2
inactive: A498 21.8 µM | A549 18.7 µM | CCRF-CEM > 67.9 µM | DLD-1 5.74 µM | DMS-273 4.56 µM | EKVX 55.5 µM | K562 5.22 µM | KM-20L2 6.61 µM | M19-MEL 21.2 µM | MCF7 14.5 µM | NCI-H23 22.9 µM | OVCAR-4 13.1 µM | SNB-78 25.7 µM | SW-620 16.7 µM | XF498 20.5 µM

C[C@]12CC[C@H](OC3CCCCO3)CC1=CC[C@@H]1C2CC[C@]2(C)/C(=N/OCCC#N)CCC12 (some centres not stated)
inactive: A498 > 100 µM | A549 26.8 µM | DLD-1 > 100 µM | DMS-273 76.7 µM | EKVX 19.2 µM | K562 6.95 µM | KM-20L2 3.78 µM | LXFL 529 17.7 µM | M19-MEL > 100 µM | NCI-H23 11.4 µM | OVCAR-4 18.9 µM | SNB-78 21.9 µM | SW-620 > 100 µM | XF498 4.62 µM

COc1cccc(/C=C2\C(=O)N(C(=O)Cc3ccccc3)N=C2C)c1
inactive: A549 > 100 µM | CCRF-CEM > 100 µM | DLD-1 > 100 µM | DMS-273 > 100 µM | EKVX > 100 µM | K562 > 100 µM | M19-MEL > 100 µM | NCI-H23 > 100 µM | OVCAR-4 > 100 µM | SNB-78 > 100 µM | SR > 100 µM | SW-620 > 100 µM | XF498 > 100 µM

Cc1ccccc1N1C(=O)C2C=CC(n3[nH]c(=O)n(Cc4ccccc4)c3=O)CC2C1=O (configuration not stated)
inactive: A498 > 100 µM | A549 > 100 µM | CCRF-CEM > 100 µM | DLD-1 > 100 µM | DMS-273 > 100 µM | EKVX > 100 µM | K562 > 100 µM | KM-20L2 > 100 µM | LXFL 529 > 100 µM | M19-MEL > 100 µM | NCI-H23 > 100 µM | SNB-78 > 100 µM | SW-620 > 100 µM | XF498 > 100 µM

N#CC1(c2nc3ccccc3o2)C(=O)C(=O)N(C2C3CC4CC(C3)CC2C4)C(=O)C1=O (configuration not stated)
inactive: A498 > 100 µM | A549 > 100 µM | CCRF-CEM 64.9 µM | DMS-273 > 100 µM | EKVX > 100 µM | K562 > 100 µM | KM-20L2 > 100 µM | LXFL 529 > 100 µM | M19-MEL > 100 µM | NCI-H23 > 100 µM | OVCAR-4 > 100 µM | SNB-78 > 100 µM | SR > 100 µM | SW-620 > 100 µM | XF498 > 100 µM

CC(=O)/C=C1\CC(=O)N(C)c2ccccc2N1
inactive: A549 > 100 µM | CCRF-CEM > 100 µM | DLD-1 2.86 µM | DMS-273 > 100 µM | EKVX > 100 µM | K562 > 100 µM | LXFL 529 > 100 µM | M19-MEL > 100 µM | NCI-H23 > 100 µM | OVCAR-4 > 100 µM | SNB-78 > 100 µM | SR > 100 µM | SW-620 > 100 µM | XF498 > 100 µM

COc1cc(C2C(C(=O)NCc3ccccc3)=C(C)NC(C)=C2C(=O)NCc2ccccc2)ccc1O
inactive: A498 84.9 µM | A549 77.4 µM | CCRF-CEM 26.3 µM | DMS-273 29.4 µM | EKVX 16.6 µM | K562 30.8 µM | KM-20L2 33.2 µM | LXFL 529 28.6 µM | M19-MEL 39.4 µM | NCI-H23 31.7 µM | OVCAR-4 40.1 µM | SNB-78 32.8 µM | SR 20.2 µM | SW-620 37.5 µM | XF498 61.5 µM

CSC(=N)N1N=C2/C(=C/c3ccccc3)CCC[C@H]2[C@H]1c1ccccc1
inactive: A498 4.11 µM | A549 4.49 µM | CCRF-CEM 2.6 µM | DLD-1 3.48 µM | DMS-273 2.75 µM | EKVX 4.56 µM | K562 1.91 µM | KM-20L2 2.34 µM | LXFL 529 4.55 µM | NCI-H23 4.88 µM | OVCAR-4 2.58 µM | SNB-78 16 µM | SR 1.85 µM | SW-620 3.91 µM | XF498 10.8 µM

Cc1ccc(N2Cc3c(ccc4ccccc34)OP2(=O)Oc2ccc(Cl)c(C)c2)cc1 (configuration not stated)
inactive: A498 81.5 µM | A549 > 94.6 µM | CCRF-CEM > 93.3 µM | DLD-1 > 41.8 µM | DMS-273 > 77.8 µM | EKVX > 100 µM | K562 > 100 µM | KM-20L2 > 100 µM | M19-MEL > 100 µM | MCF7 18.4 µM | NCI-H23 > 100 µM | OVCAR-4 > 100 µM | SNB-78 > 100 µM | SW-620 > 81.8 µM | XF498 > 100 µM

C=C1CCC2[C@@H](CCC3[C@]2(C)CCC[C@]3(C)C(=O)OC)C1CCO (some centres not stated)
inactive: A498 15.8 µM | A549 14.4 µM | CCRF-CEM 10.5 µM | DLD-1 14.2 µM | DMS-273 10.5 µM | EKVX 20.5 µM | K562 6 µM | KM-20L2 9.66 µM | LXFL 529 8.89 µM | M19-MEL 15 µM | NCI-H23 9.35 µM | OVCAR-4 12.8 µM | SNB-78 16.3 µM | SW-620 13.1 µM | XF498 10.2 µM
